Assay results as given in patent publication US10251891B2, “Aprepitant oral liquid formulations” (InnoPharma, Inc., priority 2014, dated 2019).

Experiment: Solubility of aprepitant in water
Type: physicochemical
From the text: Moreover, it should be recognized that the particle size of the active pharmaceutical ingredient may have important effects on the bioavailability of a formulation. Smaller particle sizes often have increased surface area and will thus dissolve faster than larger particles. However, decreasing the particle size will often increase agglomeration of the particles, and an increased surface area of smaller particles can result in faster degradation of the compound, e.g., due to oxidation and/or hydrolysis. The inventors have now found out that a fine particle size, and especially an average particle size between 0.250 and 0.400 micron, could achieve a desirable bioavailability (typically identical to that of commercially available solid oral aprepitant, EMEND). Such particle size may preferably be achieved using air-jet milling, ball milling, or mortar milling.

solubility in water: practically insoluble in water
Structure (SMILES): C[C@@H](O[C@H]1OCCN(Cc2n[nH]c(=O)[nH]2)[C@H]1c1ccc(F)cc1)c1cc(C(F)(F)F)cc(C(F)(F)F)c1 [Aprepitant, 5-([(2R,3S)-2-((R)-1-[3,5-bis(trifluoromethyl)phenyl]ethoxy)-3-(4-fluoro-phenyl)morpholino]methyl)-1H-1,2,4-triazol-3(2H)-one]
